Assay results as given in patent US20150079000A1, “Labelled Quinoxaline Derivatives as Multimodal Radiopharmaceuticals and Their Precursors” (INSTITUT NATIONAL DE LA SANTET DE LA RECHERCHE MEDICALE, priority 2012, published 2015).

Columns and labels:
melanin polymers = test: Biodistribution by secondary ion mass spectrometry (SIMS) analysis; format: in vivo, C57BL/6J mice; conditions: B16BL6 melanoma cells colony in lung, 1 h after i.v. 0.1 μmol/mice
Experimental: B16BL6 cells were injected intravenously into male C57BL/6J mice to obtain, within 12 days, tumour cell colonies in lungs mimicking pulmonary micrometastases. After i.v. administration of compound (1) (0.1 μmol/mice in 0.2 mL of a hydroalcoholic solution (5% v/v, 0.9% NaCl) per mouse), mice were killed 1 h post injection. Lungs were removed and small pieces of tissue including B16 melanoma colonies were isolated and fixed by slam freezing on an LN2-precooled metal mirror. Samples were dehydrated by freeze drying starting at −110 to −10° C. before embedding in Spurr resin. Serial sections of 0.4 μm thick were deposited on stainless steel holders for SIMS analysis or on glass slides for light microscopy observation.

melanoma model B16BL6 = test: Internal radiotherapy with [131I](1), B16BL6 model; format: in vivo, mice
[1] = Calculation of absorbed dose to the tumour and organs (MIRD); format: in vivo, C57BL/6J mice; conditions: iodine 131
[2] = octanol/water (PBS buffer) partition coefficient (log D); format: physicochemical
[3] = test system: SKMEL-3 human melanoma model; test: Internal radiotherapy with [131I](1), SKMEL-3 model; format: in vivo, mice
Experimental: Compound (1) was labelled with iodine-131, at high specific activity, from the corresponding stannane precursor, as described in detail in example 8. The labeling was performed with a radiochemical yield of 80% and a radiochemical purity>99%. […] The antitumour activity of the compound [^131I](1) was also evaluated in SKMEL-3 human melanoma model after injections of 25 MBq of [^131I](1): Two groups of mice were used receiving two injections at day-33 and day-40 or three injections of at day-33, day-40 and day-47 post inoculation. Results were compared to control group injected with saline.

Compound: CCN(CCNC(=O)c1cnc2cc(I)ccc2n1)CCOCCOCCOCCF [Compound 1, N-(12-ethyl-1-fluoro-3,6,9-trioxa-12-azatetradecan-14-yl)-6-iodoquinoxaline-2-carboxamide]
- colocalisation with melanin polymers (SIMS, CN− and iodine-127 signals) (melanin polymers): perfect colocalisation

Compound: CCN(CCNC(=O)c1cnc2cc([131I])ccc2n1)CCOCCOCCOCCF [[^131I](1)]
- metastasis dissemination (melanoma model B16BL6; B16BL6 melanoma model): inhibition of metastasis dissemination
- tumour doubling time (melanoma model B16BL6; B16BL6 tumours, two i.v. injections of 20 MBq at day-7 and day-11): 2.9 ± 0.5 days
- median survival time (melanoma model B16BL6; treated B16BL6 bearing-mice): 27 days
- Biological half life (h) ([1]; Adipose): 38.28 h
- Effective half life ([1]; Adipose): 47.78 h
- Biological half life (h) ([1]; Bladder (empty)): 27.57 h
- Effective half life ([1]; Bladder (empty)): 32.17 h
- Biological half life (h) ([1]; Blood): 27.45 h
- Effective half life ([1]; Blood): 32.02 h
- Biological half life (h) ([1]; Brain): 27.55 h
- Effective half life ([1]; Brain): 41.63 h
- Biological half life (h) ([1]; Colon with Faeces): 28.48 h
- Effective half life ([1]; Colon with Faeces): 26.92 h
- Biological half life (h) ([1]; Eyes): 125.03 h
- Effective half life ([1]; Eyes): 356.77 h
- Biological half life (h) ([1]; Heart): 68.51 h
- Effective half life ([1]; Heart): 46.93 h
- Biological half life (h) ([1]; Kidney): 27.60 h
- Effective half life ([1]; Kidney): 32.22 h
- Biological half life (h) ([1]; Liver): 25.87 h
- Effective half life ([1]; Liver): 29.89 h
- Biological half life (h) ([1]; Lung): 37.73 h
- Effective half life ([1]; Lung): 34.21 h
- Biological half life (h) ([1]; Muscle): 37.36 h
- Effective half life ([1]; Muscle): 46.36 h
- Biological half life (h) ([1]; Pancreas): 29.04 h
- Effective half life ([1]; Pancreas): 40.79 h
- Biological half life (h) ([1]; Skin): 46.20 h
- Effective half life ([1]; Skin): 60.79 h
- Biological half life (h) ([1]; Small Bowels): 23.67 h
- Effective half life ([1]; Small Bowels): 26.99 h
- Biological half life (h) ([1]; Spleen): 33.66 h
- Effective half life ([1]; Spleen): 33.43 h
- Biological half life (h) ([1]; Stomach): 27.36 h
- Effective half life ([1]; Stomach): 31.89 h
- Biological half life (h) ([1]; Testes): 27.57 h
- Effective half life ([1]; Testes): 32.16 h
- Biological half life (h) ([1]; Tumour): 71.67 h
- Effective half life ([1]; Tumour): 114.18 h
- Biological half life (h) ([1]; bones): 12.92 h
- Effective half life ([1]; bones): 13.85 h
- octanol/water (PBS buffer) partition coefficient (log D) [2]: 0.95±0.04
- tumour doubling time ([3]; SKMEL-3 tumours, injections of 25 MBq once weekly for 2 or 3 weeks): 26.5 ± 7.8 days
- median survival time ([3]; treated SKMEL-3 bearing-mice): 111 days
